According to patent US20230116602A1, “MCL1 INHIBITORS AND USES THEREOF” (California Institute of Technology, priority 2019, published 2023):
Read-outs that look alike come from different tables or passages of the source.

What was measured:
[1] = system: drug-sensitive cell lines of Table 3; test: Cell line growth retardation assay, sensitive cohort; format: cell-based, Human; conditions: for IC50: arithmetic mean of IC50s over the sensitive cohort of Table 3, 6 days growth, read-out: AvgSen IC50; for Fold Diff: average IC50 of resistant cohort divided by average IC50 of sensitive cohort
Outline: (§1)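 Cell lines classed as MCL1-inhibition sensitive or resistant were seeded, rested 24 h, then exposed to 10–0.0032 μM compound for 6 days. Cells were counted by imaging; growth inhibition was the ratio of population doublings with vs without compound from a pre-treatment baseline. IC50 from curve fits, averaged per cohort.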

[2] = system: drug-resistant cell lines of Table 3; test: Cell line growth retardation assay, resistant cohort; format: cell-based, Human; conditions: arithmetic mean of IC50s over the resistant cohort of Table 3, 6 days growth, read-out: AvgRes IC50
Outline: as §1

[3] = biological target: BCL2 (Homo sapiens, UniProt P10415); test: BCL2 affinity assay (competition binding, qPCR readout); conditions: recombinant BCL2, 11-point 3-fold dilution series
Outline: (§2)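 Competition binding: DNA-tagged recombinant protein (E. coli BL21-derived or HEK-293), biotinylated peptide ligand-loaded streptavidin beads and compound incubated 1 hour at room temperature, 0.9% DMSO final. Bound protein eluted with 0.5 μM non-biotinylated ligand and quantified by qPCR; Kd from 11-point 3-fold dilution series.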

[4] = biological target: MCL1 (Homo sapiens, UniProt Q07820); test: MCL1 affinity assay (competition binding, qPCR readout); conditions: recombinant MCL1, 11-point 3-fold dilution series
Outline: as §2

[5] = biological target: BCLXL (Homo sapiens, UniProt Q07817); test: BCLXL affinity assay (competition binding, qPCR readout); conditions: recombinant BCLXL, 11-point 3-fold dilution series
Outline: as §2

[6] = Maximum tolerated dose in mice; conditions: CD-1 athymic nude, mouse, in vivo, iv
Description: (§3) FIG. 1 are the results of an AMO-1 myeloma cell line xenograft study with a compound of Formula X and with an MCL1 inhibitor being tested in humans and available as catalog number HY-112218 on Oct. 2, 2020 (MedChemExpress LLC, New Jersey, USA). Eight mice were used per group, and mice were dosed by intravenous injection (IV) daily (QD) for the first 5 days of the study with various concentrations of the compound of Formula X or with HY-112218. The 10 mg/kg dose of HY-112218 and the 60 mg/kg dose of the compound of Formula X are about the maximum tolerated dose for mice and represent a theoretical efficacious dose for humans.

[7] = system: AMO-1 myeloma cell line xenograft; test: AMO-1 myeloma cell line xenograft study; format: in vivo; conditions: AMO-1 xenograft, mice, IV QD for the first 5 days
Description: FIG. 1 are the results of an AMO-1 myeloma cell line xenograft study with a compound of Formula X. Eight mice were used per group, and mice were dosed by intravenous injection (IV) daily (QD) for the first 5 days of the study with various concentrations of the compound of Formula X.
as §3
Xenograft models of human cancer cell lines were established in six-week-old CD-1 athymic nude mice by subcutaneous injection of 1.0-3.0×10^7 cells with or without 50% matrigel. […] Tumor xenografts were measured with calipers three times per week, and tumor volume (in mm^3) was determined by multiplying height×width×length. […] Data were analyzed using StudyLog software from StudyDirector (San Francisco, Calif.).

MCL1, sequence (Q07820 whole entry): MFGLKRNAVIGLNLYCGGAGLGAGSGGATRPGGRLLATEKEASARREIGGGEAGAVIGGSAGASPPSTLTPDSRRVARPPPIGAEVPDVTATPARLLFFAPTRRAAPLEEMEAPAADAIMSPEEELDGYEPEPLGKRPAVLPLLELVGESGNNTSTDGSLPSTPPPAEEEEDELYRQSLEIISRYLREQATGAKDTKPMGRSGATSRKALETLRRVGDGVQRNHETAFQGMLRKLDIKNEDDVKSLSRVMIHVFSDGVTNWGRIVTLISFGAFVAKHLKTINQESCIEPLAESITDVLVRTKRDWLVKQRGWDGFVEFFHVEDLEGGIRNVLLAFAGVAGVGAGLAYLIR
BCL2, sequence (P10415 whole entry): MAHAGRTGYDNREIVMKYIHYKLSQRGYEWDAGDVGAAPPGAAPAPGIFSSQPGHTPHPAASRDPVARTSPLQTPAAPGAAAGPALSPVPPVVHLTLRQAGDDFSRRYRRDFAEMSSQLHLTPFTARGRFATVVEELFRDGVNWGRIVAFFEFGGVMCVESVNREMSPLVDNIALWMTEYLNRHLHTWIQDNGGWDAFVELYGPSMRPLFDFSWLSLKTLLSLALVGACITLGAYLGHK
BCLXL, sequence (Q07817 whole entry): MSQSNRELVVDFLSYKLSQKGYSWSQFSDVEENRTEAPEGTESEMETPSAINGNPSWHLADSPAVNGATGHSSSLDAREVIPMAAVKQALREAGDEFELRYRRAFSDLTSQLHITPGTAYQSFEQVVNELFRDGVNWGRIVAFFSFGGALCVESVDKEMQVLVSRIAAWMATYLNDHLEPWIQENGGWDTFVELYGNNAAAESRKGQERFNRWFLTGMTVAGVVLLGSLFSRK

Structure (SMILES)	IC50 ([1]; Homo sapiens, 144 h)	Fold Diff [1]	IC50 ([2]; Homo sapiens, 144 h)	Kd [3]	Kd [4]	Kd [5]	MTD at 5 days [6]	day of study at which treated tumors resumed growth [7]	IC50 [1]	IC50 [2]
COc1cccc(-c2ncc3snc(O[C@H](Cc4ccccc4OCc4ccnc(-c5ccccc5OC)n4)C(=O)O)c3c2-c2ccc(OCCN(C)C)c(Cl)c2C)c1 (atropisomer, axis not shown) [Compound 46]	≤ 1000 nM	+ (“+” represents a fold difference of 10 or more)	> 5000 nM	> 1500 nM	≤ 100 nM	> 1500 nM	–	–	–	–
Cc1c(-c2c(-c3cccc(F)c3)ncc3snc(O[C@H](Cc4ccccc4OCc4ccnc(-c5ccncc5)n4)C(=O)O)c23)ccc(OCCN2CCN(C)CC2)c1Cl (atropisomer, axis not shown) [Compound 72]	≤ 1000 nM	+ (“+” represents a fold difference of 10 or more)	> 5000 nM	> 1500 nM	≤ 100 nM	> 1500 nM	–	–	–	–
COc1ccccc1-c1nccc(COc2ccccc2C[C@@H](Oc2ncnc3sc(-c4ccc(F)cc4)c(-c4ccc(OCCN5CCN(C)CC5)c(Cl)c4C)c23)C(=O)O)n1 [HY-112218, (R)-2-((5-(3-chloro-2-methyl-4-(2-(4-methylpiperazin-1-yl)ethoxy)phenyl)-6-(4-fluorophenyl)thieno[2,3-d]pyrimidin-4-yl)oxy)-3-(2-((2-(2-methoxyphenyl)pyrimidin-4-yl)methoxy)phenyl)propanoic acid]	–	–	–	–	–	–	~10 mg/kg	~21 days	–	–
Cc1c(-c2c(-c3cccc4c3NC(=O)C4)ncc3snc(O[C@H](Cc4ccccc4OCc4ccnn4CC(F)(F)F)C(=O)O)c23)ccc(OCCN2CCN(C)CC2)c1Cl (atropisomer, axis not shown) [Compound 12]	> 5000 nM	− (“−” represents a fold difference less than 10)	> 5000 nM	> 1500 nM	> 1500 nM	> 1500 nM	–	–	–	–
Cc1c(-c2c(-c3ccc(F)s3)ncc3snc(O[C@H](Cc4ccccc4OCc4ccnn4CC(F)(F)F)C(=O)O)c23)ccc(OCCN2CCN(C)CC2)c1Cl (single isomer, unassigned) [Compound 2]	–	− (“−” represents a fold difference less than 10)	–	> 1500 nM	501 to 1500 nM	> 1500 nM	–	–	1000 to 5000 nM	> 5000 nM
